Data taken from US5142095A, “Diarylalkanoids having activity as lipoxygenase inhibitors” (Warner-Lambert Company, priority 1989, dated 1992).

Assays:
5-lipoxygenase = target: T1, 5-lipoxygenase (Homo sapiens, UniProt P09917); assay: 5-Lipoxygenase Assay Using Isolated Human Leukocytes (5LOA2), 5-HETE formation; type: cell-based; conditions: for IC50: 50% inhibition of 5-HETE formation in human leukocytes, 20 μM arachidonic acid, 10 μM A23187, read-out: 5-LOA IC50; for inhibition at 20 µM: read-out: 5-LOA % inhibition at 20 μM
T1 construct: endogenous in cells; host or cells: leukocytes isolated from fresh human blood
T1 sequence (P09917 1-674): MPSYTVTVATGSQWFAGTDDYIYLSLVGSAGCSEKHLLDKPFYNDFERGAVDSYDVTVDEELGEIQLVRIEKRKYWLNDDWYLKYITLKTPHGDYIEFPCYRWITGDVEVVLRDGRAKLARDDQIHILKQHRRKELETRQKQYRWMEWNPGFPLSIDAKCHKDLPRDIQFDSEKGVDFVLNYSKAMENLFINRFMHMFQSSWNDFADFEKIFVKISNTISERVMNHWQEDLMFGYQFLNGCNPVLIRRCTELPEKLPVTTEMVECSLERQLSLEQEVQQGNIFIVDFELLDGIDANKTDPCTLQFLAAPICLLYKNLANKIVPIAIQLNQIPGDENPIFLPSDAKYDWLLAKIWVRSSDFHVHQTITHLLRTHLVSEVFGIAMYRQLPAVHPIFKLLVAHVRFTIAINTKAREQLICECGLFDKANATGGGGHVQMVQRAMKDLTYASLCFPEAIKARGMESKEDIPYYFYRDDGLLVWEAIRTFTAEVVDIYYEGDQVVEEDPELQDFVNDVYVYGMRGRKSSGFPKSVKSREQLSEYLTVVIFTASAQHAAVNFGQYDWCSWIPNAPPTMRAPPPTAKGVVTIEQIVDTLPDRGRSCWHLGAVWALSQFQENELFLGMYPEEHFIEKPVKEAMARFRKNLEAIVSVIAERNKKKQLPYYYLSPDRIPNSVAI
Procedure: 5-Lipoxygenase Assay Using Isolated Human Leukocytes (5LOA2)
The formation of 5-HETE in human leukocytes is considered a measure of 5-lipoxygenase activity. The protocol is described in the following.
Fresh heparinized or EDTA treated human blood is mixed with 6% dextran-3% dextrose in isotonic saline in the ratio 0.25 ml dextran solution per 1.0 ml blood. After mixing the blood is allowed to sit at room temperature for about 90 minutes while the RBC's settle. During this period, the plasma is removed with a plastic pipette to nalgens tubes.
The plasma is centrifuged at 800 rpm ([…]) on the Beckman Td-b refrigerated centrifuge to remove the platelets (which remain in the supernatant). The pellet, consisting of leukocytes and erythrocytes, is treated with 10 ml 0.87% ammonium chloride at room temperature for four minutes, lysing the red cells. At the end of four minutes the cells are diluted with a 2× volume of phosphate buffered saline, pH 7.4, and centrifuged for ten minutes. The cells are washed three times with the phosphate buffered saline. Any of the pelleted cell matter which is not easily resuspended is discarded during the washings--the material contains platelets (12-lipoxygenase activity).
After washing, the cells are resuspended in phosphate buffered saline containing 1.0 mM calcium and 0.5 mM magnesium. After counting, the cells are diluted to 1.5-2.0×10^-7 leukocytes per milliliter.
To each poly propylene reaction tube is added 0.48 ml leukocytes in Ca-Mg phosphate buffered saline, pH 7.4; 1-5 μl test compound dissolved in DMSO and buffer; or DMSO for control tubes.
The tubes preincubate at 37° C. for five minutes.
The reaction is started by adding 20 μl of the following, 0.5 μl, 20 mM arachidonic acid--final concentration =20 μm; 1 μl, 5 mM calcium ionophore A23187--final concentration =10 μm; and 18.5 μl buffer.
The reaction proceeds for five minutes, then is stopped by adding 0.5 ml, 0.5 mM ice cold Tris buffer, pH 8.0. The tubes are chilled on ice for ten minutes and then extracted three times with a total of 3.5 ml ethyl acetate (3.0 ml removed).
The tubes can be stored at this point. For extended storage, the tubes should be filled with nitrogen.
The ethyl acetate is evaporated with a Sorvall Speed-Vac. The residue is dissolved in ethanol. The tubes can also be stored at this point at -20° C. under nitrogen.
A portion of the ethanol solution is injected into the HPLC system for 5-HETE quantitation.
The HPLC system consists of Hewlett-Packard 1040A UV spectrophotometry system with an HP85 computer. Injections are made automatically with a Waters WISP 710B. The pump is a Spectra Physics SP8700. Peaks are measured with a Hewlett Packard 3390A integrator. An RP C-18 column is used. The solvent system is isocratic; the solvent is 70% methanol and 30% 0.01M sodium acetate, pH 5.7, pumped at 1.0 ml/min. The flow is monitored at 235 nm for 5-HETE quantitation. Using a 15 cm Alltech Nucleosil C-18 5 μM column provides for a sample turnaround time of about 16 minutes.
IC50 is calculated as the amount of test agent that causes 50% inhibition of the formation of 5-HETE relative to the control.

Cyclooxygenase = target: T2, Cyclooxygenase (Bos taurus, UniProt O62664); assay: Cyclooxygenase Enzyme Assay (BSV), bovine seminal vesicle powder, PGE2 formation; type: biochemical; conditions: 100 μM arachidonic acid, 20 minutes
T2 construct: The assay consists of incubating 2 mg bovine seminal vesicle powder; from tissue; host or cells: bovine seminal vesicle powder
T2 sequence (O62664 25-600): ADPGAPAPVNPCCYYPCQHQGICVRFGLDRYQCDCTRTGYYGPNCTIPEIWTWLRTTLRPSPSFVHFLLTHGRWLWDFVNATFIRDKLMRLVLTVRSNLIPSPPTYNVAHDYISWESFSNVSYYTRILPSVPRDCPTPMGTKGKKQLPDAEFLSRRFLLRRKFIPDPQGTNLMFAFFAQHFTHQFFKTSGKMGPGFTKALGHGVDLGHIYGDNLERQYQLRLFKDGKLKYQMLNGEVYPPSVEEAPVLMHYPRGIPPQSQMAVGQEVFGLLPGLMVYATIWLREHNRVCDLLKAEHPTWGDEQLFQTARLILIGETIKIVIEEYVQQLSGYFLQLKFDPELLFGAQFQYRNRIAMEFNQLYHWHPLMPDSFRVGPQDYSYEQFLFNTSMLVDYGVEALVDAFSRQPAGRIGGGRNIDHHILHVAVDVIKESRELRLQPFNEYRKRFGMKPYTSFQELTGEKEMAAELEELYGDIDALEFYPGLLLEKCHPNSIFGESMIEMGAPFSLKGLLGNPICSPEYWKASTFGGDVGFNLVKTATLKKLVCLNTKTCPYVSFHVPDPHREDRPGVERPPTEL
Procedure: Cyclooxygenase Enzyme Assay (BSV) […]
The assay consists of incubating 2 mg bovine seminal vesicle powder with 2 mM epinephrine, 2.5 mM reduced glutathione, 100 μM arachidonic acid, and the test agent for 20 minutes. The reaction mixture is acidified and extracted with ethyl acetate (3×1.0 ml) and the pooled extract is evaporated to dryness using a Speed Vac Concentrator or under a stream of nitrogen. The residue is dissolved in ethanol An aliquot is applied on 20×20 cm silica gel plate and developed using water:ethyl acetate:hexane:acetic acid (60:54:25:12.5, upper phase) to separate PGE2 from arachidonic acid. ^14 C-PGE2 formed is identified by co-chromatography with authentic ^3 H-PGE2 and the amount of radioacitvity is quantitated using an automatic TLC linear scanner (Berthold, Pittsburgh, Pa.) linked to an Apple II-e computer and an ICso is calculated as the amount of test agent causing 50% inhibition of Cyclooxygenase Enzyme relative to the control.

Structure (SMILES) | IC50 (5-lipoxygenase) [µM] | IC50 (Cyclooxygenase) [µM] | inhibition at 20 µM (5-lipoxygenase) [%]
O=C(/C=C/c1ccc(O)c(Cl)c1)CCCCc1ccccc1 [Example 5] | 8.8 | – | –
COc1cc(/C=C/C(CCc2ccccc2)=NO)ccc1O [Example 21, 1-Penten-3-one, 1-(4-hydroxy-3-methoxyphenyl)-5-phenyl, oxime] | 0.42 | 33 | –
O=C(/C=C/c1ccc(O)c(CO)c1)CCc1ccccc1 [Example 10] | 18 | 92 | –
Nc1cc(/C=C/C(=O)CCc2ccccc2)ccc1O [Example 15, 1-Pentene-3-one, 1-(3-amino-4-hydroxyphenyl)-5phenyl] | 0.079 | 169 | –
O=C(/C=C/c1ccc(O)c(O)c1)CCCc1ccccc1 [Example 8] | 2 | – | –
COc1cc(/C=C/C(=O)CCCc2ccccc2)ccc1O [Example 7] | 18 | – | –
CON=C(C=Cc1ccc(O)c(OC)c1)CCCCc1ccccc1 [Example 26, 1-(4-Hydroxy-3-methoxyphenyl)-7-phenyl-1-hepten-3-one, O-methyl oxime] | 3 | – | –
COc1cc(/C=C/C(CCCCc2ccccc2)=NO)ccc1O [Example 17, 1-Hepten-3-one, 1-(4-hydroxy-3-methoxyphenyl)-7-phenyl, oxime] | 1.7 | 23 | –
ON=C(/C=C/c1ccc(O)c(O)c1)CCCCc1ccccc1 [Example 19, 1-Hepten-3-one, 1-(3,4-dihydroxyphenyl)-7-phenyl, oxime] | 1 | 125 | –
COc1cc(C=CC(=O)CSc2ccccc2)ccc1O [Example 16A, 1-(4-Hydroxy-3-methoxyphenyl)-4-phenylthio-1-butene-3-one] | 12 | – | –
O=C(/C=C/c1ccc(C(=O)O)cc1)CCCCc1ccccc1 [Example 6] | – | – | 19
COc1cc(C=CC(=O)CCCOc2ccccc2)ccc1O [Example 14, 1-(4-Hydroxy-3-methoxyphenyl)-6-phenoxy-1-hexene-3-one] | 11 | 31 | –
O=C(/C=C/c1ccc(O)c([N+](=O)[O-])c1)CCc1ccccc1 [Example 12, 1-Pentene-3-one, 1-(4-hydroxy-3-nitrophenyl)-5-phenyl] | – | 135 | 22
COc1cc(/C=C/C(=O)CCc2ccccc2)ccc1O [Example 9] | 15 | 31 | –
OCc1cc(/C=C/C(CCCCc2ccccc2)=NO)ccc1O [Example 20] | 8.7 | – | –
O=C(/C=C/c1ccc(O)cc1)CCCCc1ccccc1 [Example 3] | – | – | 30
O=C(/C=C/c1ccc(O)c(CO)c1)CCCCc1ccccc1 [Example 4] | – | – | 17
COc1cc(C=CC(CCCOc2ccccc2)=NO)ccc1O [Example 25, 1-(4-Hydroxy-3-methoxyphenyl)-6-phenoxy-1-hexen-3-one oxime] | 0.71 | 170 | –
Nc1cc(/C=C/C(CCc2ccccc2)=NO)ccc1O (single isomer, unassigned) [23 (Isomer A), 1-Penten-3-one, 1-(3-amino-4-hydroxyphenyl)-5-phenyl, oxime] | 0.165 | 98 | –
COc1cc(C=CC(=O)CCc2ccc(O)c(OC)c2)ccc1O [Example 13, 1-Penten-3-one, 1,5-bis(4-hydroxy-3-methoxyphenyl)] | 19 | 84 | –
COc1ccc(C=CC(=O)CCCCc2ccccc2)cc1O [Example 1, 1-(3-Hydroxy-4-methoxyphenyl)-7-phenyl-1-hepten3-one] | 11 | – | –
O=C(/C=C/c1ccc(O)c(O)c1)CCCCc1ccccc1 [Example 2, 1-(3,4-dihydroxyphenyl)-7-phenyl-1-hepten-3-one] | 1.7 | – | –
COc1cc(C=CC(=O)COc2ccccc2)ccc1O [Example 16, 1(4'-Hydroxy-3'-methoxyphenyl)-4-phenoxy-1-butene-3-one] | 20 | 130 | –
COc1ccc(/C=C/C(CCCCc2ccccc2)=NO)cc1O [Example 18] | 5.9 | – | –
O=C(/C=C/c1ccc(O)c(Cl)c1)CCc1ccccc1 [Example 11] | 22 | 110 | –
Nc1cc(/C=C/C(CCc2ccccc2)=NO)ccc1O (single isomer, unassigned) [23 (Isomer B), 1-Penten-3-one, 1-(3-amino-4-hydroxyphenyl)-5-phenyl, oxime] | 0.26 | 90 | –
OCc1cc(/C=C/C(CCc2ccccc2)=NO)ccc1O [Example 22] | 35 | – | –
COc1cc(C=CC(COc2ccccc2)=NO)ccc1O [Example 24, 1-(4-Hydroxy-3-methoxyphenyl)-4-phenoxy-1-buten-3-one oxime] | 2.5 | 57 | –
